In patent US6048890A, “Phenylamidinothiophene derivatives and anti-inflammatory agent containing the same” (Kaken Pharmaceutical Co., Ltd., priority 1995, dated 2000):
Several values for one entry are separate records, joined by “and”; a condition that tells them apart may be missing. Equal entries are not always repeated. Where two headings read alike, the source gives them in different places.

Assays:
[1] = test system: stress ulcer in mice; assay type: in vivo; settings: for Ulcer index: 15 minutes before 7 h constraint under water immersion, average of sum of ulcer lengths
Method: Six-week old male ddy […] (10 rats in one group) were completely fasted overnight and then loaded with constraint under water immersion for 7 hours. The rats were observed under a stereoscopic microscope to examine production of gastric ulcer. Sum (mm) of lengths of ulcers for each animal was taken as ulcer index. Ten mg, 30 mg or 100 mg of the instant compound was mixed with 0.15 ml of Tween 80 and suspended into a 0.5% by weight aqueous solution of gum arabic to give a total 10 ml of a suspension. The suspension was orally administered 15 minutes before loading of the constraint under water immersion. Indomethacin was used as a comparative drug.
The test results are shown in Table 3 in terms of an average value of ulcer indexes.

[2] = target: T1, cyclooxygenase of sheep seminal vesicle gland (Ovis aries, UniProt P05979); assay: Action on activity of cyclooxygenase of sheep seminal vesicle gland; assay type: biochemical
T1 construct: purchased CAYMAN CO., LTD; host or cells: sheep seminal vesicle gland
T1 sequence (P05979 25-600): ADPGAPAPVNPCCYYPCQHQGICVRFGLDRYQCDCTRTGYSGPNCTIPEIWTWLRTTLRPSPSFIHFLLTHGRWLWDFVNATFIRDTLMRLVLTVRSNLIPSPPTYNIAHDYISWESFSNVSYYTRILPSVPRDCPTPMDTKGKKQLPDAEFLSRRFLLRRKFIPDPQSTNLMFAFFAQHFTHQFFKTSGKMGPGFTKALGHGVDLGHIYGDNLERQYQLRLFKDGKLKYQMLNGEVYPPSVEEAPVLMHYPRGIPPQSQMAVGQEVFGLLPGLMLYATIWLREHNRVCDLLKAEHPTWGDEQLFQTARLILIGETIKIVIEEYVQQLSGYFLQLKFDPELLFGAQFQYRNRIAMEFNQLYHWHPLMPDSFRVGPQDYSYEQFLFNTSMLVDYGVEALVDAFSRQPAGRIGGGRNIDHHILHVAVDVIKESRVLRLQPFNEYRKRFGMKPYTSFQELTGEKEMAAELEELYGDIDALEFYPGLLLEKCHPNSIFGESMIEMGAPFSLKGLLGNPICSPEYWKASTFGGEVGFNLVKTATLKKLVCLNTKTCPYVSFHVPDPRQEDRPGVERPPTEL
Method: Two hundred and fifty μl of an enzyme solution containing each test compound [5 mM triptophan, 200 nM hematin, 0.04% by weight Tween 20, 10 units of cyclooxygenase of sheep seminal vesicle gland (made by CAYMAN CO., LTD.), 2 μM [1-^14 C] arachidonic acid, 0.1 M Tris-hydrochloric acid buffer solution (pH: 8.0)], underwent a reaction at 25° C. for 6 minutes. The reaction was terminated by addition of 0.5 ml of a 0.2 M citric acid buffer solution (pH 3.0). [1-^14 C]arachidonic acid was extracted with ethyl acetate and separated by a thin layer chromatography. The radioactivity of the resulting arachidonic acid fraction was determined with a scintillation counter and the inhibition was calculated.
The inhibition value was calculated according to the following formula: [formula]

[3] = test system: rat adjuvant arthritis; assay: Action on rat adjuvant arthritis (paw swelling inhibition); assay type: in vivo, male Lewis rats; settings: mean of 4 rats (standard error); for Swelling inhibition (%), Primary inflammation (inoculated paw): measured 3 days after adjuvant inoculation; for Swelling inhibition (%), Secondary inflammation (uninoculated paw): measured 17 days after adjuvant inoculation
Method: Seven-week old male Lewis rats (4 rats in one group) were injected under the plantar skin of the right hind paw with 0.6 mg/0.1 ml of a suspension of human tubercle bacillus, killed Mycobacterium tuberculosis H37 RA in liquid paraffin, thereby inducing adjuvant arthritis. The volume of the adjuvant-inoculated paw (primary inflammation) was measured 3 days after the inoculation of adjuvant and the volume of the adjuvant-uninoculated paw (secondary inflammation) 17 days after the inoculation of adjuvant. The swelling rate of each paw was calculated with respect to the volume of the paw before the inoculation of adjuvant. Ten mg of the instant compound was suspended in 10 ml of a 0.5% by weight aqueous solution of carboxymethyl cellulose and the oral administration of the obtained suspension began on day of adjuvant inoculating and continued for 17 days in a dose of 10 mg/kg one time per day.
The swelling rate and inhibition rate were calculated according to the following formulae: [formula]
Each value is an average value for 4 rats in one group and the value in parentheses is standard error.

[4] = 10 mg/kg oral once daily for 17 days
[5] = comparative drug, 1 mg/kg, 1 mg/kg
[6] = comparative drug, 1 mg/kg, listed as indomethacin, 1 mg/kg

SMILES	Swelling inhibition (%), Primary inflammation (inoculated paw) [3, 4]	Swelling inhibition (%), Secondary inflammation (uninoculated paw) [3, 4]	also measured
CS(=O)(=O)c1ccc(-c2cc(C(=N)Nc3cccc(Cl)c3)sc2-c2ccc(F)cc2)cc1 [Example 1, 5-[N^1-(3-chlorophenyl)amidino]-2-(4-fluorophenyl)-3-(4-methylsulfonylphenyl)thiophene]	31.5% and 31.5 (0.91) %	48.9% and 48.9 (3.58) %	Ulcer index ([1]; 10 mg/kg oral): 6.5 mm; Ulcer index ([1]; 30 mg/kg oral): 10.8 mm; Ulcer index ([1]; 100 mg/kg oral): 9.6 mm; Ulcer index / ulcer-exacerbating action (in words) ([1]; compared with solvent-given group, up to 100 mg/kg (Example 1), 1 and 3 mg/kg (indomethacin)): no evident difference in ulcer index was observed even in the group given 100 mg/kg; inhibition at 100 µM ([2]; 10^-4 M, pH 8.0, 25° C., 6 minutes, average of two experiments): -2.2%; inhibition at 10 µM ([2]; 10^-5 M, pH 8.0, 25° C., 6 minutes, average of two experiments): 1.3%; inhibition at 1 µM ([2]; 10^-6 M, pH 8.0, 25° C., 6 minutes, average of two experiments): 3.4%; Inhibition of cyclooxygenase activity (in words) ([2]; even in 10^-4 M added group): did not inhibit the activity of cyclooxygenase
CS(=O)(=O)c1ccc(-c2cc(C(=N)Nc3ccc(F)c(Cl)c3)sc2-c2ccc(F)cc2)cc1 [Example 18]	27.9 (3.09) %	48.9 (9.69) %	–
COc1ccc2c(c1)c(CC(=O)O)c(C)n2C(=O)c1ccc(Cl)cc1 [Indomethacin, indomethacin, reference compound]	–	–	Inhibition of cyclooxygenase activity (in words) ([2]; 10^-6 M): completely inhibited the activity; inhibition at 0.1 µM ([2]; 10^-7 M, pH 8.0, 25° C., 6 minutes, average of two experiments): 66.2%; Concentrations at which the activity of cyclooxygenase was inhibited ([2]; dependent on dosage): ≥ 10^-8 M; Swelling inhibition (%), Primary inflammation (inoculated paw) [3, 5]: 28.3 (4.10) %; Swelling inhibition (%), Primary inflammation (inoculated paw) [3, 6]: 28.8%; Swelling inhibition (%), Secondary inflammation (uninoculated paw) [3, 5]: 43.6 (9.42) %; Swelling inhibition (%), Secondary inflammation (uninoculated paw) [3, 6]: 43.6%
CS(=O)(=O)c1ccc(-c2cc(C(=N)Nc3ccc(Cl)c(Cl)c3)sc2-c2ccc(F)cc2)cc1 [Example 17]	27.4 (7.02) %	44.1 (3.83) %	–
CS(=O)(=O)c1ccc(-c2cc(C(=N)Nc3ccc(Cl)cc3)sc2-c2ccc(F)cc2)cc1 [Example 4]	32.7 (7.40) %	57.4 (8.54) %	–
CS(=O)(=O)c1ccc(-c2cc(C(=N)Nc3ccccc3Cl)sc2-c2ccc(F)cc2)cc1 [Example 3]	22.1 (4.94) %	32.2 (10.8) %	–
CS(=O)(=O)c1ccc(-c2cc(C(=N)Nc3ccc(Br)cc3)sc2-c2ccc(F)cc2)cc1 [Example 7]	36.1 (6.36) %	48.8 (3.20) %	–
CS(=O)(=O)c1ccc(-c2cc(C(=N)Nc3ccc(F)cc3)sc2-c2ccc(F)cc2)cc1 [Example 6]	26.3 (4.37) %	57.2 (5.34) %	–
COc1ccc(NC(=N)c2cc(-c3ccc(S(C)(=O)=O)cc3)c(-c3ccc(F)cc3)s2)cc1 [Example 11]	35.0 (10.1) %	37.1 (4.42) %	–
CS(=O)(=O)c1ccc(-c2cc(C(=N)Nc3ccc(F)cc3F)sc2-c2ccc(F)cc2)cc1 [Example 12]	18.2 (2.73) %	24.9 (10.2) %	–
CS(=O)(=O)c1ccc(-c2cc(C(=N)Nc3ccc(Cl)cc3Cl)sc2-c2ccc(F)cc2)cc1 [Example 13]	16.7 (3.25) %	24.2 (5.05) %	–
CS(=O)(=O)c1ccc(-c2cc(C(=N)Nc3ccccc3)sc2-c2ccc(F)cc2)cc1 [Example 2]	22.6 (5.24) %	28.4 (2.55) %	–
CS(=O)(=O)c1ccc(-c2cc(C(=N)Nc3cccc(F)c3)sc2-c2ccc(F)cc2)cc1 [Example 5]	23.5 (4.75) %	34.7 (4.26) %	–
